# Entries after “also recorded” stand apart in the source; their conditions may differ.
# Experiments:
# [1] = tested on: PGI2 formation in response to intravenous bradykinin; test: Urinary PGI-M excretion at rest and after bradykinin infusion, Example 3; type: in vivo, human; details: for PGI-M (stim) post ASA: bradykinin-stimulated
# Method: In an additional 4 subjects, we examined the increase in PGI2 formation in response to intravenous bradykinin prior to and following oral aspirin 75 mg or dermal aspirin 750 mg daily for 14 days. The protocol for bradykinin has been described previously [Clark, N.Engl.J.Med 325:1137 (1991)]. Volunteers were admitted after an overnight fast to the Clinical Research Center. Blood samples were obtained for serum TXB2 and the subject asked to void. Through a peripheral vein, 1 liter of normal saline was infused over 1 hour. After a further hour, bradykinin was infused in incremental doses of 100-800 ng/kg/min, each over 15 mm. The infusion was continued at the maximum tolerated dose for a total period of 2 hr. Blood pressure and heart rate were monitored continuously. Urine was collected in separate 2 hr aliquots prior to, during and following the bradykinin infusion.
# ^1 The excretion of TXM and PGIM before and following dermal aspirin
# 750 mg/day or oral aspirin 75 mg/day for 10 days. Urine samples were
# collected over 2 hr before (rest) and following the administration of […]
# skin = test: Skin reactions and histology after dermal aspirin; type: in vivo, human
# [2] = tested on: pregnancy-induced hypertension and preeclamptic toxemia; details: daily doses, third trimester, women at high risk; cited from earlier work
# TXA2 biosynthesis = test: Urinary 2,3-dinor-TXB2 (TX-M) excretion, dermal aspirin, Example 2; type: in vivo, human
# Method: (§1) Only healthy male and female volunteers were studied. The subjects were asked to avoid aspirin and any other cyclooxygenase inhibitors for the 10 days before and throughout the period of investigation. Aspirin (acetyl salicylic acid, USP) powder was dissolved in propylene glycol and either isopropyl alcohol or ethanol (1.7:1 v/v) to a final concentration of 94 mg/ml. […] The aspirin preparation was made daily immediately prior to its application Volunteers attended the clinic where the preparation was applied and were asked not to wash the area for at least 12 hours. The aspirin solution was applied to the forearm and upper arm over a 15 min interval. Volunteers received aspirin 250 mg (n=4), aspirin 750 mg (n=6) or vehicle (n=6) for 10 days and were followed for 8 days following drug withdrawal. The volunteers were aged 31-56 years, with equal numbers of male and females in each treatment group.
# (§2) Blood without anticoagulant was obtained for serum TXB2, the stable metabolite of TXA2, prior to and at intervals during and following aspirin administration. The blood was allowed to clot in glass at 37° C. for 60 min and the serum removed and stored at -20° C. until analyzed. Urine was collected over 24 hours at corresponding times for measurement of 2,3-dinor-TXB2 (TX-M) and 2,3-dinor-6-keto-PGF1a (PGI-M), major enzymatic metabolites of TXA2 and PGI2, respectively [Lawson et al., Analyt. Biochem. 150:463 (1985); FitzGerald et al., N. Engl. J. Med. 310: 1065 (1984)]. Excretion of these products is an index of the in vivo formation of their parent compounds [FitzGerald et al., supra; Reilly and Fitzgerald, Blood 69: 180 (1987)]. Serum TXB2 and urinary metabolites were determined by negative ion-chemical ionization, gas chromatography-mass spectrometry (NICI-GCMS) using authentic deuterated standards, as previously described [Braden et al., supra].
# PGI2 biosynthesis = test: Urinary 2,3-dinor-6-keto-PGF1a (PGI-M) excretion, dermal aspirin, Example 2; type: in vivo, human; details: for Urinary PGI-M excretion, peak decrease (day 4): p=0.074 by ANOVA (not significant)
# Method: as §1, §2
# thromboxane synthesis = details: cited from earlier work
# [3] = Hemoccults, gastrointestinal symptoms and side effects, Example 1; type: in vivo, human; details: 5 volunteers, topical aspirin
# Excerpt: Five healthy adult volunteers (3 male, 2 female) were studied. Each refrained from ingesting oral aspirin for two weeks prior to study. Prior to treatment in accordance with the present invention, baseline thromboxane levels and hemoccults were obtained.
# After base levels of thromboxane had been measured, the aspirin solution was first applied on the morning of Day 1 to the skin of the human subjects within an hour of mixing by rubbing the aspirin solution on the arms and/or chest of the subject. The application was repeated with freshly prepared solution for each of four additional mornings (Days 2-5) in the same manner. Between applications the subjects followed their normal schedule of bathing and showering. Eight hours after the fifth application (on Day 5) blood was drawn for salicylate levels and thromboxane levels to be determined. With one subject, blood was drawn for TXA2 levels every day just before application of a new aspirin solution (i.e., approximately 24 hours after application of the previous aspirin solution). Hemoccults were also tested.
# physchem = type: physicochemical
# gastric mucosa = details: cited from earlier work
# platelet cyclooxygenase = test: Serum TXB2 during and after dermal aspirin (index of platelet cyclooxygenase); type: in vivo, human
# Excerpt: In studying the effects of the methods of the present invention platelet cyclooxygenase activity was used as a measure of aspirin bioavailability, in addition to plasma drug levels. […] Inhibition of urinary TX-M followed a similar pattern. TX-M is a major enzymatic metabolite of TXB2 and its excretion is an index of TXA2 biosynthesis in vivo. In contrast, the vehicle alone had no effect on serum TXB2 or urinary TX-M. Following withdrawal of therapy, serum TXB2 and TX-M recovered gradually over a period of days. This is consistent with inhibition of platelet cyclooxygenase in vivo. As the enzyme is inhibited irreversibly, recovery of platelet TXA2 biosynthesis parallels the formation of new platelets, a process that has a half-life of 5 days.
# as §1, §2
# [4] = highest dose of dermal aspirin (750 mg/day)
# [5] = patients with rheumatic diseases
smiles,measurement,setting,value
"CC(=O)Oc1ccccc1C(=O)O [aspirin, acetyl salicylic acid]",PGI-M (rest) post ASA,"[1]; Dermal aspirin 750 mg/day, PT 1, pre ASA 163",138
same,PGI-M (rest) post ASA,"[1]; Dermal aspirin 750 mg/day, PT 2, pre ASA 105",149
same,PGI-M (rest) post ASA,"[1]; Oral aspirin 75 mg/day, PT 1, pre ASA 104",63
same,PGI-M (rest) post ASA,"[1]; Oral aspirin 75 mg/day, PT 2, pre ASA 200",96
same,PGI-M (stim) post ASA,"[1]; Dermal aspirin 750 mg/day, PT 1, pre ASA 1520",1553
same,PGI-M (stim) post ASA,"[1]; Dermal aspirin 750 mg/day, PT 2, pre ASA 559",601
same,PGI-M (stim) post ASA,"[1]; Oral aspirin 75 mg/day, PT 1, pre ASA 433",173
same,PGI-M (stim) post ASA,"[1]; Oral aspirin 75 mg/day, PT 2, pre ASA 340",132
same,Resting and bradykinin-stimulated PGI-M excretion,[1]; dermal aspirin 750 mg/day,PGI2 formation in response to bradykinin infusion was also unaltered; also recorded: largely unaltered; also recorded: had not effect on
same,Resting and bradykinin-stimulated PGI-M excretion,[1]; oral aspirin 75 mg/day,suppressed basal and bradykinin-stimulated PGI-M excretion; also recorded: decrease in urinary PGI-M at rest and following stimulation with bradykinin
same,"Subjects with skin reactions, including erythema and peeling",skin; dermal aspirin,30 % of subjects
same,Skin reactions with alternate day application,"skin; dermal, alternate day, up to 8 weeks",without reactions for up to 8 weeks
same,Skin histology,"skin; one subject, 10 days, 250 mg/day",no histological changes
same,Incidence of pregnancy-induced hypertension and preeclamptic toxemia,[2],significantly reduce the incidence of pregnancy-induced hypertension and preeclamptic toxemia
same,"Urinary TX-M excretion, 8 days following drug withdrawal",TXA2 biosynthesis; dermal aspirin 750 mg/day,65±9 % of pretreatment value
same,"Urinary TX-M excretion, day 10","TXA2 biosynthesis; dermal aspirin 750 mg/day, n=5, p=0.002, baseline 498±76 pg/mg creatinine",32±7 % of baseline
same,Urinary TX-M excretion response,TXA2 biosynthesis; dermal aspirin 250 and 750 mg/day,dose dependent reduction in the urinary excretion of TX-M
same,PGI2 biosynthesis based on urinary PGI-M,PGI2 biosynthesis; dermal aspirin,little inhibition of basal or stimulated PGI2 formation; also recorded: only a small fall in PGI2 biosynthesis
same,"Urinary PGI-M excretion, peak decrease (day 4)","PGI2 biosynthesis; dermal aspirin 250 mg/day, baseline 402±139 pg/mg creatinine",84±4 % of baseline
same,"Urinary PGI-M excretion, peak decrease (day 4)","PGI2 biosynthesis; dermal aspirin 750 mg/day, baseline 248±73 pg/mg creatinine",76±7 % of baseline
same,Decrease in basal PGI-M excretion by day 4,PGI2 biosynthesis; [4],24%
same,PGI-M excretion by day 10,PGI2 biosynthesis; [4],83 % of baseline
same,"Thromboxane-B2 synthesis in vitro and urinary 2,3-dinor-thromboxane-B2",thromboxane synthesis; approximately 40 mg/day,"inhibit thromboxane-B2 synthesis in vitro and to reduce the urinary excretion of 2,3-dinor-thromboxane-B2"
same,TXA2 and PGI2 synthesis,"thromboxane synthesis; approximately 1,000 mg/day",inhibits both TXA2 and PGI2 synthesis
same,Maternal and neonatal thromboxane,"thromboxane synthesis; low doses, women at risk for pregnancy-induced hypertension","selectively suppress maternal thromboxane levels, but only partially suppressed neonatal thromboxane"
same,Gastrointestinal symptoms or other side effects,[3],No gastrointestinal symptoms or other side effects were noted or reported
same,Hemoccults,[3],negative
same,degraded at 24 h,"physchem; 24 hr, room temperature, propylene glycol and isopropyl alcohol or ethanol (1.7:1 v/v), 94 mg/ml, read-out: Salicylate detected in vehicle (aspirin stability)",< 1%
same,Stability of aspirin in vehicle,"physchem; propylene glycol and alcohol vehicle, 24 hr room temperature",stable
same,"Gastric mucosa damage, occult bleeding",gastric mucosa; applied topically to gastrointestinal tissue,damages gastric mucosa and induces occult gastrointestinal bleeding
same,Effects on gastric mucosa,gastric mucosa; intravenous/parenteral vs oral,less pronounced with parenteral than with oral administration
same,Bleeding,gastric mucosa; oral diluted solutions vs similar doses in tablet form,considerably less bleeding than similar doses in tablet form
same,Erythema of the gastric mucosa,gastric mucosa; [5],approximately 80 % of patients
same,Gastric erosions,gastric mucosa; [5],approximately 40 % of patients
same,Gastric ulcer,gastric mucosa; [5],15 % of patients
same,Inhibition of platelet cyclooxygenase,platelet cyclooxygenase; aspirin absorbed through the skin,marked and selective inhibition of platelet cyclooxygenase
same,"Serum TXB2 recovery, day 8 after withdrawal",platelet cyclooxygenase; dermal aspirin 250 mg/day,93±7 % of baseline
same,"Serum TXB2 (fall in), day 10","platelet cyclooxygenase; dermal aspirin 250 mg/day, n=4, p<0.01",55±11%
same,"Serum TXB2 recovery, day 8 after withdrawal",platelet cyclooxygenase; dermal aspirin 750 mg/day,65±9 % of baseline
same,Serum TXB2 response,"platelet cyclooxygenase; dermal aspirin 750 mg/day, n=6",progressive reduction in serum TXB2 in all but one of the volunteers
same,"Serum TXB2, day 10 of application","platelet cyclooxygenase; dermal aspirin 750 mg/day, n=5 (one non-responder excluded), p=0.003",5±3 % of baseline
same,Decrease in serum TXB2 in the subjects of Example 4,"platelet cyclooxygenase; dermal aspirin, subjects selected for pharmacokinetics",> 90%
same,"Maximum inhibition of platelet cyclooxygenase, as measured by serum TXB2","platelet cyclooxygenase; dermal, highest dose, 10 days",exceeded 95%

# Source: patent publication US6071896A, “Suppression of thromboxane levels by percutaneous administration of aspirin” (Gundersen Clinic, Ltd., priority 1998, dated 2000)
